In US20250041282A1, “METHOD FOR TREATING INFLAMMATORY PULMONARY DISEASE” (FU JEN CATHOLIC UNIVERSITY, priority 2021, published 2025):

Key:
[1] = test system: C57BL/6 mice with LPS-induced systemic inflammation; test: Serum cytokines by ELISA in mice with LPS-induced systemic inflammation; assay type: in vivo, mouse; details: FJU-C28 5 mg/kg, LPS 7.5 mg/kg; FIG. 12B
Method: RANTES (RayBiotech), IL-1β and IL-6 (eBioscience, San Diego, CA, USA) concentrations in cell culture media and mouse serum were measured using ELISA kits according to the manufacturer's instructions. The plates were measured at […] using an Epoch microplate spectrophotometer (BioTek Instruments, Winooski, VT, USA). The concentrations of RANTES, IL-1β and IL-6 in the samples were determined by standard curves.
Ten-week-old male C57BL/6 mice from BioLasco Taiwan Co., Ltd. (Taipei, Taiwan) were used in the present study. […] The detailed procedure was performed as described in a previous study.^34 The lung function values, including C chord (lung compliance), IC (inspiratory capacity), VC (vital capacity), FEV100 (forced expiratory volume at 100 ms) and FVC (forced vital capacity), were measured using a Buxco Research System. […]
To evaluate the protective effect of FJU-C28 on lung function in mice with systemic inflammation induced by endotoxin, male C57BL/6 mice were administered LPS (7.5 mg/kg) and treated with/without FJU-C28 (5 mg/kg) for 24 hours; subsequently, lung function parameters were measured using a Buxco pulmonary function test system. […] To ascertain the correlation between target cytokines and lung injury, serum cytokines were measured by ELISA.

[2] = test system: RAW264.7 macrophages; test: Cytokine protein array analysis of conditioned culture media; assay type: cell-based, mouse
Method: Cytokine array analysis was performed according to the procedure recommended by the Raybio mouse cytokine antibody array 4 (RayBiotech, Inc. Peachtree Corners, GA). This cytokine protein array was used to simultaneously determine the relative levels of 40 different cytokines, chemokines, and acute-phase proteins in a single sample. One hundred microliters of cell culture medium was used for each sample. The signal intensity in the membrane of the cytokine protein array was measured by using ImageJ software and is presented as a heat map drawn by using MultiExperiment Viewer (MeV V.4.9.0) software.
To distinguish the effect of various FJU-Cs on LPS-induced inflammation, the cell culture media of RAW264.7 macrophages treated with various conditions were harvested and analyzed by using a mouse cytokine antibody array (left panel of FIG. 3). The signal intensities on the array membranes were quantified by densitometry, and the changes in different cytokines are represented as a heat map (right panel of FIG. 3).

[3] = test system: RAW264.7 macrophages; test: Analysis of cell viability (MTT assay); assay type: cell-based, mouse; details: FIG. 1B
Method: RAW264.7 cells (mouse monocyte/macrophage-like cells) were purchased from the Bioresource Collection and Research Center (Hsinchu, Taiwan). The cells were maintained in DMEM (HyClone, Logan, UT, USA) containing 10% fetal bovine serum (HyClone), MEM nonessential amino acids (HyClone), […] sodium pyruvate (HyClone), and penicillin/streptomycin (HyClone). The cells were incubated at 37° C. in a humidified atmosphere of 5% CO2 and 95% air. RAW264.7 macrophages were pretreated with FJU-Cs (0 to 10 μM) as indicated for 30 min and were then stimulated with/without LPS (100 ng/ml) for 24 h. The remaining cells were evaluated by a 3-(4,5-dimethylthiazol-2-yl)-2,5-diphenyl tetrazolium bromide (MTT) assay. Cells containing formazan crystals were dissolved in DMSO (Merck, Darmstadt, Germany) and quantified at a wavelength of 595 nm using a spectrophotometer (BioTek Instruments, Inc. Winooski, Vermont, USA). Each experiment was repeated at least 3 times.

Question: Which “circulating (serum) level of IL-6” value [1] does the source give for `C=CCC1CC(Sc2ccccc2)=CC(=O)N1C(=O)C=C` (stereo not drawn) [FJU-C28] here?
Answer: significantly suppressed

Question: What about the “circulating (serum) level of RANTES” value [1] of the same compound?
Answer: significantly suppressed

Question: What about the “LPS-induced secretion of TIMP1, IL-6 and IL-10 (array, in words)” value ([2]; FIG. 3) of the same compound?
Answer: dramatically suppressed

Question: What about the “LPS-induced secretion/expression of RANTES (array, in words)” value ([2]; FIG. 3) of the same compound?
Answer: dramatically suppressed

Question: And the “Protein array, fold change (mean ± S.E.): BLC” value ([2]; LPS + compound / control)?
Answer: 1.3 ± 0.1 fold change

Question: What about the “Protein array, fold change (mean ± S.E.): CD30 L” value ([2]; LPS + compound / control) of the same compound?
Answer: 1.6 ± 0.9 fold change

Question: What about the “Protein array, fold change (mean ± S.E.): Eotaxin” value ([2]; LPS + compound / control) of the same compound?
Answer: 10.3 ± 6.1 fold change

Question: And the “Protein array, fold change (mean ± S.E.): Eotaxin-2” value ([2]; LPS + compound / control)?
Answer: 2.0 ± 1.0 fold change

Question: And the “Protein array, fold change (mean ± S.E.): Fas ligand” value ([2]; LPS + compound / control)?
Answer: 1.1 ± 0.8 fold change

Question: What about the “Protein array, fold change (mean ± S.E.): Fractalkine” value ([2]; LPS + compound / control) of the same compound?
Answer: 1.0 ± 0.6 fold change

Question: And the “Protein array, fold change (mean ± S.E.): GCSF” value ([2]; LPS + compound / control)?
Answer: 20.1 ± 1.9 fold change

Question: What about the “Protein array, fold change (mean ± S.E.): GM-CSF” value ([2]; LPS + compound / control) of the same compound?
Answer: 1.5 ± 0.4 fold change

Question: And the “Protein array, fold change (mean ± S.E.): I-TAC” value ([2]; LPS + compound / control)?
Answer: 0.8 ± 0.3 fold change

Question: What about the “Protein array, fold change (mean ± S.E.): IL-1B” value ([2]; LPS + compound / control) of the same compound?
Answer: 2.6 ± 0.0 fold change

Question: And the “Protein array, fold change (mean ± S.E.): IL-1α” value ([2]; LPS + compound / control)?
Answer: 1.1 ± 0.1 fold change

Question: And the “Protein array, fold change (mean ± S.E.): IL-2” value ([2]; LPS + compound / control)?
Answer: 2.1 ± 0.2 fold change

Question: What about the “Protein array, fold change (mean ± S.E.): IL-3” value ([2]; LPS + compound / control) of the same compound?
Answer: 1.1 ± 0.2 fold change

Question: What about the “Protein array, fold change (mean ± S.E.): IL-4” value ([2]; LPS + compound / control) of the same compound?
Answer: 1.2 ± 0.2 fold change

Question: What about the “Protein array, fold change (mean ± S.E.): IL-6” value ([2]; LPS + compound / control) of the same compound?
Answer: 1.1 ± 0.2 fold change

Question: And the “Protein array, fold change (mean ± S.E.): IL-9” value ([2]; LPS + compound / control)?
Answer: 0.9 ± 0.3 fold change

Question: And the “Protein array, fold change (mean ± S.E.): IL-10” value ([2]; LPS + compound / control)?
Answer: 0.3 ± 0.2 fold change

Question: What about the “Protein array, fold change (mean ± S.E.): IL-12 p70” value ([2]; LPS + compound / control) of the same compound?
Answer: 0.8 ± 0.2 fold change

Question: And the “Protein array, fold change (mean ± S.E.): IL-12 p-40 p70” value ([2]; LPS + compound / control)?
Answer: 0.9 ± 0.1 fold change

Question: What about the “Protein array, fold change (mean ± S.E.): IL-13” value ([2]; LPS + compound / control) of the same compound?
Answer: 0.6 ± 0.0 fold change

Question: And the “Protein array, fold change (mean ± S.E.): IL-17” value ([2]; LPS + compound / control)?
Answer: 7.8 ± 5.3 fold change

Question: What about the “Protein array, fold change (mean ± S.E.): INF gamma” value ([2]; LPS + compound / control) of the same compound?
Answer: 1.4 ± 0.2 fold change

Question: And the “Protein array, fold change (mean ± S.E.): KC” value ([2]; LPS + compound / control)?
Answer: 0.8 ± 0.4 fold change

Question: What about the “Protein array, fold change (mean ± S.E.): LIX” value ([2]; LPS + compound / control) of the same compound?
Answer: 1.0 ± 0.2 fold change

Question: And the “Protein array, fold change (mean ± S.E.): Leptin” value ([2]; LPS + compound / control)?
Answer: 3.2 ± 0.8 fold change

Question: And the “Protein array, fold change (mean ± S.E.): Lymphotactin” value ([2]; LPS + compound / control)?
Answer: 0.7 ± 0.2 fold change

Question: And the “Protein array, fold change (mean ± S.E.): MCP-1” value ([2]; LPS + compound / control)?
Answer: 1.7 ± 0.2 fold change

Question: What about the “Protein array, fold change (mean ± S.E.): MCSF” value ([2]; LPS + compound / control) of the same compound?
Answer: 0.8 ± 0.1 fold change

Question: What about the “Protein array, fold change (mean ± S.E.): MIP-1α” value ([2]; LPS + compound / control) of the same compound?
Answer: 1.0 ± 0.2 fold change

Question: What about the “Protein array, fold change (mean ± S.E.): MIP-1γ” value ([2]; LPS + compound / control) of the same compound?
Answer: 1.2 ± 0.2 fold change

Question: What about the “Protein array, fold change (mean ± S.E.): RANTES” value ([2]; LPS + compound / control) of the same compound?
Answer: 1.3 ± 0.2 fold change

Question: And the “Protein array, fold change (mean ± S.E.): SDF1” value ([2]; LPS + compound / control)?
Answer: 0.9 ± 0.2 fold change

Question: What about the “Protein array, fold change (mean ± S.E.): STNFRI” value ([2]; LPS + compound / control) of the same compound?
Answer: 1.0 ± 0.0 fold change

Question: And the “Protein array, fold change (mean ± S.E.): STNFRII” value ([2]; LPS + compound / control)?
Answer: 2.1 ± 0.1 fold change

Question: What about the “Protein array, fold change (mean ± S.E.): TCA-3” value ([2]; LPS + compound / control) of the same compound?
Answer: 0.9 ± 0.1 fold change

Question: And the “Protein array, fold change (mean ± S.E.): TECK” value ([2]; LPS + compound / control)?
Answer: 0.5 ± 0.3 fold change

Question: And the “Protein array, fold change (mean ± S.E.): TIMP-1” value ([2]; LPS + compound / control)?
Answer: 1.1 ± 0.1 fold change

Question: And the “Protein array, fold change (mean ± S.E.): TIMP-2” value ([2]; LPS + compound / control)?
Answer: 0.0 ± 0.0 fold change

Question: What about the “Protein array, fold change (mean ± S.E.): TNFα” value ([2]; LPS + compound / control) of the same compound?
Answer: 21.0 ± 0.8 fold change

Question: What about the cytotoxicity ([3]; compared with 10 μM FJU-C4, 24 hours) of the same compound?
Answer: less cytotoxicity than 10 μM FJU-C4

Question: What about the LPS-induced cell death ([3]; pretreated 30 min, then LPS 24 hours) of the same compound?
Answer: protected RAW264.7 macrophages from LPS-induced cell death
